Results: the supplement of paper PMC10307832

Legend:
Experiment in all cases: relative viability (nuclei count vs DMSO), 5 days (fraction); higher = more cells survive
Dinaciclib + Lapatinib = compound: CCc1cnn2c(NCc3ccc[n+]([O-])c3)cc(N3CCCC[C@H]3CCO)nc12 [Dinaciclib] + CS(=O)(=O)CCNCc1ccc(-c2ccc3ncnc(Nc4ccc(OCc5cccc(F)c5)c(Cl)c4)c3c2)o1 [Lapatinib] (partner 2 µM)
How it was run: (§1)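 A single step with final 0.05% Triton X-100, 1% formaldehyde and 1 ug/ml Hoechst fixed the cells and stained nuclei 5 days after treatment. Lung cancer cell lines in 1536-well plates had been treated by pin tool the day after seeding with one drug alone or a fixed anchor-drug dose plus five library-drug doses (not always all listed) in √10 steps, and nuclei were counted on 4× images. Relative viability is the ratio of nuclei in treated wells to nuclei in vehicle wells, taken as the median of duplicate plates.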

Dinaciclib + Pemetrexed = compound: CCc1cnn2c(NCc3ccc[n+]([O-])c3)cc(N3CCCC[C@H]3CCO)nc12 [Dinaciclib] + Nc1nc2[nH]cc(CCc3ccc(C(=O)N[C@@H](CCC(=O)O)C(=O)O)cc3)c2c(=O)[nH]1 [Pemetrexed] (partner 0.2 µM)
How it was run: as §1

Dinaciclib + Bortezomib = compound: CCc1cnn2c(NCc3ccc[n+]([O-])c3)cc(N3CCCC[C@H]3CCO)nc12 [Dinaciclib] + CC(C)C[C@H](NC(=O)[C@H](Cc1ccccc1)NC(=O)c1cnccn1)B(O)O [Bortezomib] (partner 0.002 µM)
How it was run: as §1

Dinaciclib + Pictilisib = compound: CCc1cnn2c(NCc3ccc[n+]([O-])c3)cc(N3CCCC[C@H]3CCO)nc12 [Dinaciclib] + CS(=O)(=O)N1CCN(Cc2cc3nc(-c4cccc5[nH]ncc45)nc(N4CCOCC4)c3s2)CC1 [Pictilisib] (partner 1 µM)
How it was run: as §1

Dinaciclib + Palbociclib = compound: CCc1cnn2c(NCc3ccc[n+]([O-])c3)cc(N3CCCC[C@H]3CCO)nc12 [Dinaciclib] + CC(=O)c1c(C)c2cnc(Nc3ccc(N4CCNCC4)cn3)nc2n(C2CCCC2)c1=O [Palbociclib] (partner 0.5 µM)
How it was run: as §1

Row | Cell Line | relative viability (Dinaciclib + Lapatinib; first compound 0.009487 µM) | relative viability (Dinaciclib + Lapatinib; first compound 0.03 µM) | relative viability (Dinaciclib + Lapatinib; first compound 0.09487 µM) | relative viability (Dinaciclib + Lapatinib; first compound 0.3 µM) | relative viability (Dinaciclib + Pemetrexed; first compound 0.009487 µM) | relative viability (Dinaciclib + Pemetrexed; first compound 0.03 µM) | relative viability (Dinaciclib + Pemetrexed; first compound 0.09487 µM) | relative viability (Dinaciclib + Pemetrexed; first compound 0.3 µM) | relative viability (Dinaciclib + Bortezomib; first compound 0.009487 µM) | relative viability (Dinaciclib + Bortezomib; first compound 0.03 µM) | relative viability (Dinaciclib + Bortezomib; first compound 0.09487 µM) | relative viability (Dinaciclib + Bortezomib; first compound 0.3 µM) | relative viability (Dinaciclib + Pictilisib; first compound 0.009487 µM) | relative viability (Dinaciclib + Pictilisib; first compound 0.03 µM) | relative viability (Dinaciclib + Pictilisib; first compound 0.09487 µM) | relative viability (Dinaciclib + Pictilisib; first compound 0.3 µM) | relative viability (Dinaciclib + Palbociclib; first compound 0.009487 µM) | relative viability (Dinaciclib + Palbociclib; first compound 0.03 µM) | relative viability (Dinaciclib + Palbociclib; first compound 0.09487 µM) | relative viability (Dinaciclib + Palbociclib; first compound 0.3 µM)
1 | NCI-H1666 | 0.319 | 0.19 | 0.182 | 0.212 | 0.933 | 0.399 | 0.504 | 0.491 | 0.528 | 0.19 | 0.164 | 0.18 | 0.4 | 0.19 | 0.21 | 0.226 | 0.672 | 0.442 | 0.6 | 0.541
2 | NCI-H1734 | 0.72 | 0.158 | 0.134 | 0.143 | 0.417 | 0.147 | 0.149 | 0.136 | 0.644 | 0.148 | 0.121 | 0.116 | 0.396 | 0.188 | 0.124 | 0.128 | 0.26 | 0.135 | 0.122 | 0.126
3 | NCI-H1755 | 1.05 | 0.829 | 0.163 | 0.184 | 0.397 | 0.272 | 0.204 | 0.261 | 0.889 | 0.884 | 0.171 | 0.17 | 0.387 | 0.132 | 0.127 | 0.143 | 0.423 | 0.316 | 0.223 | 0.238
4 | NCI-H1792 | 0.848 | 0.808 | 0.0608 | 0.0733 | 0.561 | 0.14 | 0.0501 | 0.0374 | 0.925 | 0.741 | 0.238 | 0.0774 | 0.234 | 0.121 | 0.0539 | 0.0574 | 0.677 | 0.365 | 0.217 | 0.152
5 | NCI-H1915 | 0.715 | 0.134 | 0.102 | 0.111 | 0.471 | 0.439 | 0.11 | 0.0872 | 0.81 | 0.23 | 0.112 | 0.105 | 0.658 | 0.158 | 0.121 | 0.102 | 0.474 | 0.121 | 0.125 | 0.113
6 | NCI-H1975 | 0.561 | 0.129 | 0.107 | 0.133 | 0.275 | 0.288 | 0.146 | 0.16 | 0.29 | 0.126 | 0.109 | 0.12 | 0.166 | 0.0983 | 0.102 | 0.102 | 0.578 | 0.188 | 0.102 | 0.105
7 | NCI-H1993 | 0.869 | 0.45 |  | 0.723 | 0.592 | 0.452 | 0.484 | 0.427 | 1.18 | 0.551 |  | 0.61 | 0.694 | 0.834 |  | 0.588 | 0.602 | 0.36 | 0.506 | 0.433
8 | NCI-H2009 | 0.493 | 0.108 | 0.101 | 0.0913 | 0.977 | 0.459 | 0.0817 | 0.0842 | 0.88 | 0.101 | 0.069 | 0.0948 | 0.661 | 0.0836 | 0.0705 | 0.0666 | 0.243 | 0.0729 | 0.0659 | 0.057
9 | NCI-H2023 | 0.817 | 0.0669 | 0.0655 | 0.0585 | 0.165 | 0.0899 | 0.0697 | 0.0581 | 1 | 0.066 | 0.0634 | 0.0575 | 0.26 | 0.0718 | 0.0607 | 0.0559 | 0.301 | 0.0599 | 0.0471 | 0.063
10 | NCI-H2085 | 0.712 | 0.238 | 0.249 | 0.26 | 0.916 | 0.279 | 0.211 | 0.217 | 1.06 | 0.446 | 0.26 | 0.233 | 0.424 | 0.281 | 0.221 | 0.215 | 0.514 | 0.503 | 0.22 | 0.211
11 | NCI-H2087 | 0.828 | 0.168 | 0.15 | 0.136 | 0.687 | 0.109 | 0.106 | 0.101 | 0.998 | 0.135 | 0.142 | 0.123 | 0.643 | 0.143 | 0.165 | 0.151 | 0.22 | 0.086 | 0.0942 | 0.0781
12 | NCI-H2126 | 0.784 | 0.354 | 0.204 | 0.231 | 0.695 | 0.495 | 0.198 | 0.192 | 1.06 | 0.973 | 0.524 | 0.208 | 0.474 | 0.246 | 0.198 | 0.199 | 0.333 | 0.3 | 0.207 | 0.198
13 | NCI-H2228 | 0.764 | 0.112 | 0.0806 | 0.11 | 0.309 | 0.152 | 0.0897 | 0.0862 | 0.934 | 0.0992 | 0.119 | 0.102 | 0.484 | 0.0919 | 0.0936 | 0.1 | 0.651 | 0.115 | 0.0872 | 0.0982
14 | NCI-H2347 | 0.959 | 0.637 | 0.214 | 0.259 | 0.459 | 0.319 | 0.228 | 0.224 | 1.23 | 0.226 | 0.239 | 0.215 | 0.455 | 0.292 | 0.327 | 0.179 | 0.506 | 0.321 | 0.21 | 0.212
15 | NCI-H2405 | 0.957 | 0.197 | 0.207 | 0.183 | 0.803 | 0.247 | 0.213 | 0.209 | 0.904 | 0.761 | 0.207 | 0.271 | 0.572 | 0.226 | 0.227 | 0.177 | 0.542 | 0.22 | 0.199 | 0.188
16 | NCI-H3122 | 1.01 | 0.185 | 0.147 | 0.169 | 0.245 | 0.106 | 0.0981 | 0.0956 | 1 | 0.195 | 0.139 | 0.151 | 0.385 | 0.178 | 0.134 | 0.13 | 0.175 | 0.108 | 0.0876 | 0.0895
